Experiments:
Format in all cases: cell-based
[1] = system: HCT-116 human colorectal carcinoma cells; assay: MTT antiproliferative assay, HCT-116; settings: for IC50: Homo sapiens, HCT-116, MTT, 72 h treatment, mean ± SD, read-out: IC50 (µM) ± S.D. HCT-116 Colon Cancer; for Selectivity index (IC50 normal fibroblast/IC50 HCT-116): fibroblasts/colon cancer, first value of the SI cell; for Selectivity for HCT-116 over MCF-7: ratio of MCF-7 to HCT-116 IC50
Procedure: (§1) The proliferation inhibitory activities of the carboxamide derivatives 4-16 were tested in vitro using the MTT assay against the human cancer MCF-7, K-562, and HCT-116 cell lines in addition to normal human cells (dermal fibroblasts) to evaluate their putative selective cytotoxic activities. […] The human colorectal carcinoma (HCT-116), human breast adenocarcinoma (MCF-7), human chronic myelogenous leukemia (K-562), and human dermal fibroblast normal cell lines were purchased from were purchased from the American Type Culture Collection (ATCC) (Manassas, VA, USA) and stored in liquid nitrogen. Cells were passaged twice weekly upon reaching 70–80% confluency, and only low passage numbers (≤ 10) were used in all experiments. Mycoplasma contamination was monitored using the Lonza MycoAlert™ mycoplasma detection kit. Cells were sub-cultured and maintained with appropriate media: RPMI-1640 medium (Buffalo, New York, USA) was used to grow MCF-7, K-562 and HCT-116 cancer cells, while fibroblast cells were cultured in Iscove’s Modified Dulbecco’s medium (IMDM) (EuroClone S.p.A., Pero, MI, Italy). Both media were supplemented with 10% (v/v) heat-inactivated fetal bovine serum (FBS) (Gibco, CA, USA), 2 mM of L-Glutamine, 100 units/mL of Penicillin, and 100 μg/mL of Streptomycin (EuroClone, Italy). Cells were maintained at 37 °C in a humidified incubator with 5% CO2 (NuAire, Plymouth, MN, USA). The MTT colorimetric assay utilized in this study was previously described and adapted from Mosmann. The MTT regent [3-(4,5-dimethylthiazol-2-yl)-2,5-diphenyl tetrazolium bromide] was employed to evaluate the antiproliferative activities of carboxamides 4-16 against MCF-7, K-562, HCT-116, and dermal normal fibroblast cell lines. Cells (6–8 × 10^3 per well, 180 µL) were seeded into 96-well plates (Corning, New York, USA) and allowed to adhere overnight at 37 °C in a humidified 5% CO₂ incubator. Fresh top stock solutions of the test compounds (10 mM in DMSO) were then freshly prepared, followed by serial dilutions in the appropriate culture media before being added to the seeded cells. […] Initial screening for potential antiproliferative activity was carried out using two concentration points (10 µM and 50 µM) in triplicate over a 72-hour incubation period. […] Following 72 h of exposure, MTT solution (2 mg/mL in PBS, 50 µL per well) was added, and plates were incubated for an additional 4 h. The supernatant in each well was then removed, and the resulting formazan crystals were solubilized by adding DMSO (150 µL per well). Absorbance, measured as the optical density (OD), was recorded at 570 nm using a microplate reader (Thermo Fisher Scientific, Waltham, MA, USA). The detected signal intensity corresponds to metabolic activity, which directly correlates with the viable cell number. All experiments were performed in triplicate, and the results are presented as the mean ± standard deviation (SD). The IC50 values for antiproliferative activity were calculated using nonlinear regression analysis in GraphPad Prism software (GraphPad Prism version 9.0.0 for Windows, GraphPad Software, San Diego, California USA). Additionally, a two-way ANOVA test was conducted to analyze significant variations in IC50 values, with a significant level set at α = 0.05.

[2] = system: MCF-7 human breast adenocarcinoma cells; assay: MTT antiproliferative assay, MCF-7; settings: for IC50: Homo sapiens, MCF7, 72 h, read-out: IC50 (µM) ± S.D. MCF-7 Breast Cancer; for Selectivity index (IC50 normal fibroblast/IC50 MCF-7): fibroblasts/breast cancer, second value of the SI cell
Procedure: as §1

[3] = system: K-562 human chronic myelogenous leukemia cells; assay: MTT antiproliferative assay, K-562; settings: for IC50: Homo sapiens, K562, 72 h, MTT, 72 h treatment, mean ± SD, read-out: IC50 (µM) ± S.D. K-562 Leukemia; for Selectivity index (IC50 normal fibroblast/IC50 K-562): fibroblasts/leukemia, third value of the SI cell
Procedure: as §1

[4] = system: human dermal fibroblast normal cell line; assay: MTT assay, normal dermal fibroblasts; settings: 72 h treatment, read-out: IC50 (µM) ± S.D. Dermal Fibroblast Normal
Procedure: as §1

| SMILES | IC50 [1] [µM] | Selectivity index (IC50 normal fibroblast/IC50 HCT-116) [1] | IC50 ([2]; MTT, 72 h treatment, mean ± SD) [µM] | Selectivity index (IC50 normal fibroblast/IC50 MCF-7) [2] | IC50 [3] [µM] | Selectivity index (IC50 normal fibroblast/IC50 K-562) [3] | IC50 [4] [µM] | IC50 (µM) ± S.D. MCF-7 Breast Cancer ([2]; MTT, 72 h treatment, mean ± SD) | Selectivity for HCT-116 over MCF-7 [1] [fold] |
| --- | --- | --- | --- | --- | --- | --- | --- | --- | --- |
| O=C(Nc1ccc(Cl)cc1)c1cc2ccccc2[nH]1 [Compound 4, N-(4-Chlorophenyl)-1H-indole-2-carboxamide] | 3.94 ± 0.03 | > 25.4 | 10.6 ± 0.53 | > 9.4 | 0.61 ± 0.03 | > 164 | > 100 | – | – |
| O=C(Nc1ccc(F)cc1)c1cc2ccccc2[nH]1 [Compound 6, N-(4-Florophenyl)-1H-indole-2-carboxamide] | 25.4 ± 0.38 | > 3.9 | 80.8 ± 4.04 | > 1.2 | 84.6 ± 4.23 | > 1.2 | > 100 | – | – |
| O=C(Nc1ccc([N+](=O)[O-])cc1)c1cc2ccccc2[nH]1 [Compound 8, N-(4-Nitrophenyl)-1H-indole-2-carboxamide] | 32 ± 0.83 | > 3.1 | > 100 | – | > 100 | – | > 100 | exceptional resistance | – |
| O=C(Nc1ccccn1)c1cc2ccccc2[nH]1 [Compound 10, N-(Pyridin-2-yl)-1H-indole-2-carboxamide] | 1.01 ± 0.04 | > 99.4 | 70.3 ± 3.52 | > 1.4 | > 100 | – | > 100 | – | 69.6 |
| O=C(Nc1cccc2c1C(=O)c1ccccc1C2=O)c1cc2ccccc2[nH]1 [Compound 12, N-(9,10-Dihydro-9,10-dioxoanthracen-1-yl)-1H-indole-2-carboxamide] | 3.98 ± 0.06 | > 25.1 | – | > 11.0 | 0.33 ± 0.02 | > 303 | > 100 | – | – |
| O=C(Nc1ccc2c(c1)C(=O)c1ccccc1C2=O)c1cc2ccccc2[nH]1 [Compound 14, N-(9,10-Dihydro-9,10-dioxoanthracen-2-yl)-1H-indole-2-carboxamide] | 2.64 ± 0.07 | > 37.9 | 7.16 ± 0.36 | > 14.0 | – | > 164 | > 100 | – | – |
| O=C(Nc1cccc2c1C(=O)c1ccccc1C2=O)c1ccco1 [Compound 16, N-(9,10-Dihydro-9,10-dioxoanthracen-1-yl)-2-furamide] | 3.11 ± 0.049 | > 32.2 | 33.1 ± 1.66 | > 3.0 | > 100 | – | > 100 | – | 10.6 |

Source: publication PMC12193374, “Exploring Carboxamide Derivatives as Promising Anticancer Agents: Design, In Vitro Evaluation, and Mechanistic Insights” (International Journal of Molecular Sciences, 2025)
